Reference: patent US9776972B2, “Pyrazole derivatives as arginine methyltransferase inhibitors and uses thereof” (priority 2013, dated 2017)
Counter-ions that a name gives are not always drawn.

Legend:
Human CARM1 (PRMT4) = biological target: T1, Human CARM1 (PRMT4) (Homo sapiens, UniProt Q86X55); experiment: CARM1 Biochemical Assay (3H-SAM Flashplate, peptide substrate); conditions: single experiment or average of multiple experiments
T1 construct: Flag-CARM1-His; made in house; host or cells: HEK 293F cells (BacMam baculovirus)
T1 sequence (Q86X55 1-585 isoform Q86X55-1): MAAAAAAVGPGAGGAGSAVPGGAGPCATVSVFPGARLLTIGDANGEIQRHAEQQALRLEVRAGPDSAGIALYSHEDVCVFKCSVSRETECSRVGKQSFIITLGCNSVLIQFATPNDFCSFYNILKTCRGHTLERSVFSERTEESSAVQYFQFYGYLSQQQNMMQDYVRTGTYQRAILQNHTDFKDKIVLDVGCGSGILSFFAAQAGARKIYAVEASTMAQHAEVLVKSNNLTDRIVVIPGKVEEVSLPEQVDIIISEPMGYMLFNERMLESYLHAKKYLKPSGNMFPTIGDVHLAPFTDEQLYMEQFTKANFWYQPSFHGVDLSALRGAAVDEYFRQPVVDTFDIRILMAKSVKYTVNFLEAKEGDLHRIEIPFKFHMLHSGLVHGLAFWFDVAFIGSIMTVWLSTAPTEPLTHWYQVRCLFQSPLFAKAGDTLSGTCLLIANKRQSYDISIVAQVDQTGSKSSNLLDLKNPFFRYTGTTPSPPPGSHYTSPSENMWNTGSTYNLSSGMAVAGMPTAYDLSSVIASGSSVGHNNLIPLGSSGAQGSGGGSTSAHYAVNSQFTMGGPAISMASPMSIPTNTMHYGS
Description: S-adenosylmethionine (SAM), S-adenosylhomocysteine (SAH), bicine, Tween20, dimethylsulfoxide (DMSO), bovine skin gelatin (BSG), sodium butyrate and Tris(2-carboxyethyl)phosphine hydrochloride solution (TCEP) were purchased from Sigma-Aldrich at the highest level of purity possible. ^3H-SAM was purchase from American Radiolabeled Chemicals with a specific activity of 80 Ci/mmol. 384-well streptavidin Flashplates were purchased from PerkinElmer.
Peptide representative of human histone H3 residues 16-30 was synthesized with an N-terminal linker-affinity tag motif and a C-terminal amide cap by 21st Century Biochemicals. […] The sequence was Biot-Ahx-[…]-amide and contained a monomethylated arginine at position 26 (SEQ ID NO.: 14).
Recombinant baculovirus were generated according to Bac-to-Bac kit instructions (Life Technologies). […] Infections were carried out at 37° C. for 48 hours, harvested by centrifugation, and stored at −80° C. for purification.
Column was washed with 500 mM NaCl in buffer A and Flag-CARM1-His was eluted with 200 ug/ml FLAG peptide in buffer A. Pooled fractions were dialyzed in 20 mM Tris, 150 mM NaCl, 5% glycerol and 1 mM DTT, pH 7.8.
General Procedure for CARM1 Enzyme Assays on Peptide Substrates.
The assays were all performed in a buffer consisting of 20 mM Bicine (pH=7.6), 1 mM TCEP, 0.005% BSG, and 0.002% Tween 20, prepared on the day of use. […] DMSO (1 ul) was added to Columns 11, 12, 23, 24, rows A-H for the maximum signal control and 1 ul of SAH, a known product and inhibitor of CARM1, was added to columns 11, 12, 23, 24, rows I-P for the minimum signal control. A cocktail (40 ul) containing the CARM1 enzyme was added by Multidrop Combi (Thermo-Fisher). The compounds were allowed to incubate with CARM1 for 30 min at room temperature, then a cocktail (10 ul) containing ^3H-SAM and peptide was added to initiate the reaction (final volume=51 ul). […] The assays were stopped by the addition of non-radiolabeled SAM (10 ul) to a final concentration of 300 uM, which dilutes the ^3H-SAM to a level where its incorporation into the peptide substrate is no longer detectable. 50 ul of the reaction in the 384-well polypropylene plate was then transferred to a 384-well Flashplate and the biotinylated peptides were allowed to bind to the streptavidin surface for at least 1 hour before being washed once with 0.1% Tween20 in a Biotek ELx405 plate washer. The plates were then read in a PerkinElmer TopCount plate reader to measure the quantity of ^3H-labeled peptide bound to the Flashplate surface, measured as disintegrations per minute (dpm) or alternatively, referred to as counts per minute (cpm).
Where dpm=disintegrations per minute, cmpd=signal in assay well, and min and max are the respective minimum and maximum signal controls.
Where top and bottom are the normally allowed to float, but may be fixed at 100 or 0 respectively in a 3-parameter fit. The Hill Coefficient normally allowed to float but may also be fixed at 1 in a 3-parameter fit. Y is the % inhibition and X is the compound concentration.

human PRMT1 = biological target: T2, human PRMT1 (Homo sapiens, UniProt Q99873); experiment: PRMT1 Biochemical Assay (3H-SAM Flashplate, peptide substrate); conditions: single experiment or average of multiple experiments
T2 construct: GST-tagged PRMT1; made in house; host or cells: High Five insect cells (baculovirus)
T2 sequence (Q99873 with tags, fused parts or gaps): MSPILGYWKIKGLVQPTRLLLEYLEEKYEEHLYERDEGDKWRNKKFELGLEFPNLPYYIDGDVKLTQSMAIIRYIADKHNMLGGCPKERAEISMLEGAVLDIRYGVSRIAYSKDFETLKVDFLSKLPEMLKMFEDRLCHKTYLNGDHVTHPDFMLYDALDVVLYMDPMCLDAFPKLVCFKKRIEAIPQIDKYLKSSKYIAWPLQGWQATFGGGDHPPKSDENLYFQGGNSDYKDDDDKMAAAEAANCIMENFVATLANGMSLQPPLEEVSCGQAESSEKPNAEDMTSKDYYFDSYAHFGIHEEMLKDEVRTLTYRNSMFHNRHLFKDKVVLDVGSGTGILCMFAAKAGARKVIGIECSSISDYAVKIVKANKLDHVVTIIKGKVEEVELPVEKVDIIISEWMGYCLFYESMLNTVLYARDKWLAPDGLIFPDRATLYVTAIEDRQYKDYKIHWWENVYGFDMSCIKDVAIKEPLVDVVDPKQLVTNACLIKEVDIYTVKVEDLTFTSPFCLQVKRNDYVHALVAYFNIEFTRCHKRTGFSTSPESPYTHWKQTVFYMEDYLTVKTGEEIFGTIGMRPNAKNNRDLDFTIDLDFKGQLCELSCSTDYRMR
Summary of the method: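 GST-tagged PRMT1 from baculovirus-infected cells, preincubated with compounds 30 min at room temperature in 20 mM Bicine pH 7.6, 1 mM TCEP, 0.005% BSG, 0.002% Tween 20. Reaction started with ³H-SAM plus biotinylated peptide, stopped with 300 µM cold SAM.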

Row | Compound | IC50 (Human CARM1 (PRMT4)) | IC50 (human PRMT1)
1 | CCCc1ccc(-c2n[nH]cc2CN(C)CCNC)cc1 [Compound 20] | 278 nM | 4.12 nM
2 | CNCCN(C)Cc1c[nH]nc1-c1cccc([N+](=O)[O-])c1 [Compound 21] | 2090 nM | 57.9 nM
3 | CNCCN(C)Cc1c[nH]nc1-c1cccc(C#N)c1 [Compound 22] | 1370 nM | 166 nM
4 | CNCCN(C)Cc1c[nH]nc1-c1ccccc1OC [Compound 23] | 1760 nM | 194 nM
5 | CNCCN(C)Cc1c[nH]nc1-c1cccc(OC)c1 [Compound 24] | 1210 nM | 85.6 nM
6 | CNCCN(C)Cc1c[nH]nc1-c1ccc(OC)cc1 [Compound 25] | 1560 nM | 20.9 nM
7 | CNCCN(C)Cc1c[nH]nc1-c1cccc(O)c1 [Compound 26] | 2340 nM | 197 nM
8 | CNCCN(C)Cc1c[nH]nc1-c1ccc(O)cc1 [Compound 27] | 1710 nM | 97.7 nM
9 | CNCCN(C)Cc1c[nH]nc1-c1ccc(CO)cc1 [Compound 28] | 337 nM | 11.1 nM
10 | CNCCN(C)Cc1c[nH]nc1-c1ccc(C)cc1C [Compound 29] | 6300 nM | 178 nM
11 | CNCCN(C)Cc1cn(CCCC(O)CO)nc1-c1ccc(F)cc1 (stereo not drawn) [Compound 30] | 3680 nM | 3560 nM
12 | CNCCN(C)Cc1cnn(CCCC(O)CO)c1-c1ccc(F)cc1 (stereo not drawn) [Compound 31] | 1840 nM | 779 nM
13 | CNCCN(C)Cc1c[nH]nc1-c1ccc(N)cc1 [Compound 33] | 1380 nM | 153 nM
14 | CNCCN(C)Cc1c[nH]nc1-c1ccc(Oc2ccccc2)cc1 [Compound 37] | 15.2 nM | 2.74 nM
15 | CCNC(=O)c1cccc(-c2n[nH]cc2CN(C)CCNC)c1 [Compound 43] | 4960 nM | 338 nM
16 | CNCCN(C)Cc1c[nH]nc1-c1ccc(C(=O)c2ccccc2)cc1 [Compound 45] | 42.9 nM | 8.34 nM
17 | CNCCN(C)Cc1c[nH]nc1-c1ccc(F)cc1F [Compound 49] | 5040 nM | 165 nM
18 | CNCCN(C)Cc1c[nH]nc1-c1cc(F)ccc1F [Compound 50] | 4320 nM | 149 nM
19 | CNCCN(C)Cc1c[nH]nc1-c1ccc(F)c(F)c1 [Compound 51] | 625 nM | 12.9 nM
20 | CNCCN(C)Cc1c[nH]nc1-c1ccc(OC)c(F)c1 [Compound 52] | 1500 nM | 12.6 nM
21 | CNCCN(C)Cc1c[nH]nc1-c1ccc(OC)cc1OC [Compound 55] | 4200 nM | 190 nM
22 | CNCCN(C)Cc1c[nH]nc1-c1cccc2ccccc12 [Compound 57] | 1310 nM | 7.07 nM
23 | CNCCN(C)Cc1c[nH]nc1-c1ccc2ccccc2c1 [Compound 58] | 582 nM | 5.73 nM
24 | CNCCN(C)Cc1cn(CCC(O)CO)nc1-c1ccc(F)cc1 (stereo not drawn) [Compound 59] | 4590 nM | 5860 nM

Row | Compound | IC50 (Human CARM1 (PRMT4)) | IC50 (human PRMT1)
25 | CCN(CCN)Cc1c[nH]nc1-c1ccc(F)cc1 [Compound 62] | 672 nM | 13.9 nM
26 | CN(CCN)Cc1cnn(CCO)c1-c1ccc(F)cc1 [Compound 65] | 8930 nM | 1940 nM
27 | CN(CCN)Cc1cn(CCO)nc1-c1ccc(F)cc1 [Compound 66] | 3790 nM | 2410 nM
28 | CN(CCN)Cc1c[nH]nc1-c1ccc(C#N)cc1 [Compound 68] | 802 nM | 6.04 nM
29 | CNCCN(C)Cc1cn(C)nc1-c1ccc(OC(C)C)cc1 [Compound 243, N^1-((3-(4-isopropoxyphenyl)-1-methyl-1H-pyrazol-4-yl)methyl)-N1,N2-dimethylethane-1,2-diamine] | 301 nM | 17.7 nM
30 | CNCCN(C)Cc1cn(Cc2cccnc2)nc1-c1ccc(OC(C)C)cc1 [Compound 246] | 2430 nM | 61.5 nM
31 | CNCCN(C)Cc1cn(Cc2ccccn2)nc1-c1ccc(OC(C)C)cc1 [Compound 247] | 2820 nM | 147 nM
32 | CNCCN(C)Cc1cn(CC(=O)OC)nc1-c1ccc(OC(C)C)cc1 [Compound 248] | 3750 nM | 215 nM
33 | CNCCN(C)Cc1cnn(CC(=O)OC)c1-c1ccc(OC(C)C)cc1 [Compound 249] | 9630 nM | 109 nM
34 | CNCCN(C)Cc1cn(CC(N)=O)nc1-c1ccc(OC(C)C)cc1 [Compound 251] | 2980 nM | 275 nM
35 | CCn1ncc(CN(C)CCNC)c1-c1ccc(OC(C)C)cc1 [Compound 252] | 531 nM | 25.8 nM
36 | CNCCN(C)Cc1cn(CCOC)nc1-c1ccc(OC(C)C)cc1 [Compound 253, N1-((3-(4-isopropoxyphenyl)-1-(2-methoxyethyl)-1H-pyrazol-4-yl)methyl)-N1,N2-dimethylethane-1,2-diamine hydrochloride] | 2260 nM | 113 nM
37 | CNCCN(C)Cc1cn(C2CCC2)nc1-c1ccc(OC(C)C)cc1 [Compound 254, N1-((1-cyclobutyl-3-(4-isopropoxyphenyl)-1H-pyrazol-4-yl)methyl)-N1,N2-dimethylethane-1,2-diamine hydrochloride] | 413 nM | 29.3 nM
38 | CNCCN(C)Cc1cnn(C2CCCC2)c1-c1ccc(OC(C)C)cc1 [Compound 255] | 1170 nM | 16.8 nM
39 | CNCCN(C)Cc1cn(C2CCCCC2)nc1-c1ccc(OC(C)C)cc1 [Compound 256] | 571 nM | 132 nM
40 | C=CC(=O)Nc1cccc(-c2[nH]ncc2CN(C)CCNC)c1 [Compound 258] | 1700 nM | 43.9 nM
41 | CNCCN(C)Cc1n[nH]c(C)c1-c1ccc(OC(C)C)cc1 [Compound 275] |  | 8.63 nM
42 | CNCCN(C)Cc1c(-c2ccc(OCCCOC)cc2)cnn1C [Compound 276] |  | > 1000 nM
43 | CNCCN(C)Cc1n[nH]cc1-c1ccc(Oc2cccc(C(C)C)c2)cc1 [Compound 277] |  | 20.2 nM
44 | CNCCN(C)Cc1n[nH]cc1-c1ccc(Oc2ccccc2F)cc1 [Compound 279, N^1-((4-(4-(2-fluorophenoxy)phenyl)-1H-pyrazol-3-yl)methyl)-N^1,N^2-dimethylethane-1,2-diamine] |  | 3.46 nM
45 | CC(C)Cc1cc(-c2n[nH]cc2CN(C)CCN)ccc1F [Compound 280] |  | 4.3 nM
46 | CNCCN(C)Cc1c[nH]nc1-c1cc(CC(C)C)cc(CC(C)C)c1 [Compound 281] |  | 11.2 nM
47 | CNCCN(C)Cc1c[nH]nc1-c1cc(Cl)c(OCC2CC2)c(Cl)c1 [Compound 282] |  | 2.21 nM
